System: not listed separately
Test: In vitro cytotoxicity by MTT assay, HEK 293
Type: cell-based, human
Details: human, HEK 293 cells, 0.005 μM, read-out: % cytotoxicity (100 − % cell survival) of HEK 293 cell line
Experimental: (§1) The cancer cell line cultures of HEK 293 ([…]), BT474 (breast cancer cell line) and NCI-H226 (lung cancer) were obtained from Pasteur Institute of India, Coonoor, India, and were cultured in RPMI-1640 and 10 % heat-[…] New born calf serum with antibiotics [penicillin ([…]), streptomycin (100 μg/mL) and amphotericin B (25 μg/mL)]. The cells were maintained at 37 °C in a humidified atmosphere with 5 % CO2 and were subcultured twice a week.
(§2) The monolayer cell culture (100 μL) was trypsinized, and the cell count was adjusted to […] using medium containing 10 % new born calf serum. To each well of the 96-well microtitre plate, the diluted cell suspension (approximately 10,000 cells) (0.1 mL) was added and kept for 24 h in incubator at 37 °C in 5 % CO2 atmosphere for cell monolayer formation. After 24 h, when a partial monolayer was formed at the bottom of the well, the supernatant was flicked off, the monolayer was washed once, and different drugs, i.e. synthesized compounds (100 μL), were added to the cells in microtitre plates. The plates were then incubated at 37 °C for 3 days in 5 % CO2 atmosphere, and microscopic examination was carried out and observations recorded every 24 h. After 72 h, the sample solution in the wells was flicked off; MTT dye ([…]) was added to each well; plates were gently shaken and incubated for 4 h at 37 °C in 5 % CO2 incubator. The supernatant was removed and propanol (50 μL) was added; the plates were gently shaken to solubilize the formed formazan. The absorbance was measured using a microplate reader at a wavelength of 490 nm (Edmondson et al., [1988]; Prasad et al., [2005]; Chiruvella et al., [2008]; Chang et al., [2007]).
With `Nc1nnc(S(=O)(=O)NC(=O)c2cccc([N+](=O)[O-])c2)s1` [Compound 4f] the cytotoxicity at 72 h, 0.005 µM was 24.3%.

Same assay, conditions: human, HEK 293 cells, 0.015 μM, read-out: % cytotoxicity (100 − % cell survival) of HEK 293 cell line
With `Nc1nnc(S(=O)(=O)NC(=O)c2cccc([N+](=O)[O-])c2)s1` [Compound 4f] the cytotoxicity at 72 h, 0.015 µM was 26.4%.

Same assay, conditions: human, HEK 293 cells, 0.045 μM, read-out: % cytotoxicity (100 − % cell survival) of HEK 293 cell line
Compound `Nc1nnc(S(=O)(=O)NC(=O)c2cccc([N+](=O)[O-])c2)s1` [Compound 4f] has a cytotoxicity at 72 h, 0.045 µM of 28.1%.

Same assay, conditions: human, HEK 293 cells, 0.13 μM, read-out: % cytotoxicity (100 − % cell survival) of HEK 293 cell line
With `Nc1nnc(S(=O)(=O)NC(=O)c2cccc([N+](=O)[O-])c2)s1` [Compound 4f] the cytotoxicity at 72 h, 0.13 µM was 28.4%.

Same assay, conditions: human, HEK 293 cells, 0.41 μM, read-out: % cytotoxicity (100 − % cell survival) of HEK 293 cell line
In the case of `Nc1nnc(S(=O)(=O)NC(=O)c2cccc([N+](=O)[O-])c2)s1` [Compound 4f], the cytotoxicity at 72 h, 0.41 µM is reported as 28.9%.

Same assay, conditions: human, HEK 293 cells, 1.23 μM, read-out: % cytotoxicity (100 − % cell survival) of HEK 293 cell line
For `Nc1nnc(S(=O)(=O)NC(=O)c2cccc([N+](=O)[O-])c2)s1` [Compound 4f], the cytotoxicity at 72 h, 1.23 µM was 29.2%.

Same assay, conditions: human, HEK 293 cells, 3.7 μM, read-out: % cytotoxicity (100 − % cell survival) of HEK 293 cell line
With `Nc1nnc(S(=O)(=O)NC(=O)c2cccc([N+](=O)[O-])c2)s1` [Compound 4f] the cytotoxicity at 72 h, 3.7 µM was 30%.

Same assay, conditions: human, HEK 293 cells, 11.11 μM, read-out: % cytotoxicity (100 − % cell survival) of HEK 293 cell line
`Nc1nnc(S(=O)(=O)NC(=O)c2cccc([N+](=O)[O-])c2)s1` [Compound 4f] gave a cytotoxicity at 72 h, 11.11 µM of 30.7%.

Same assay, conditions: human, HEK 293 cells, 33.33 μM, read-out: % cytotoxicity (100 − % cell survival) of HEK 293 cell line
Compound `Nc1nnc(S(=O)(=O)NC(=O)c2cccc([N+](=O)[O-])c2)s1` [Compound 4f] has a cytotoxicity at 72 h, 33.33 µM of 31.2%.

Same assay, conditions: human, HEK 293 cells, 100 μM, read-out: % cytotoxicity (100 − % cell survival) of HEK 293 cell line
Work on `Nc1nnc(S(=O)(=O)NC(=O)c2cccc([N+](=O)[O-])c2)s1` [Compound 4f] yielded a cytotoxicity at 72 h, 100 µM of 32%.

System: BT474 (breast cancer cell line)
Test: In vitro cytotoxicity by MTT assay, BT474
Type: cell-based
Details: Homo sapiens, BT-474, 0.005 μM, 72 h, read-out: % cytotoxicity (100 − % cell survival) of BT474 cell line
Experimental: as §1, §2
For `Nc1nnc(S(=O)(=O)NC(=O)c2cccc([N+](=O)[O-])c2)s1` [Compound 4f], the cytotoxicity at 0.005 µM was 37.6%.

Same assay, conditions: Homo sapiens, BT-474, 0.015 μM, 72 h, read-out: % cytotoxicity (100 − % cell survival) of BT474 cell line
`Nc1nnc(S(=O)(=O)NC(=O)c2cccc([N+](=O)[O-])c2)s1` [Compound 4f] showed a cytotoxicity at 0.015 µM of 39%.

Same assay, conditions: Homo sapiens, BT-474, 0.045 μM, 72 h, read-out: % cytotoxicity (100 − % cell survival) of BT474 cell line
With `Nc1nnc(S(=O)(=O)NC(=O)c2cccc([N+](=O)[O-])c2)s1` [Compound 4f] the cytotoxicity at 0.045 µM was 41.3%.

Same assay, conditions: Homo sapiens, BT-474, 0.13 μM, 72 h, read-out: % cytotoxicity (100 − % cell survival) of BT474 cell line
Compound `Nc1nnc(S(=O)(=O)NC(=O)c2cccc([N+](=O)[O-])c2)s1` [Compound 4f] has a cytotoxicity at 0.13 µM of 43.8%.

Same assay, conditions: Homo sapiens, BT-474, 0.41 μM, 72 h, read-out: % cytotoxicity (100 − % cell survival) of BT474 cell line
`Nc1nnc(S(=O)(=O)NC(=O)c2cccc([N+](=O)[O-])c2)s1` [Compound 4f] gave a cytotoxicity at 0.41 µM of 45.3%.

Same assay, conditions: Homo sapiens, BT-474, 1.23 μM, 72 h, read-out: % cytotoxicity (100 − % cell survival) of BT474 cell line
`Nc1nnc(S(=O)(=O)NC(=O)c2cccc([N+](=O)[O-])c2)s1` [Compound 4f] gave a cytotoxicity at 1.23 µM of 48.5%.

Same assay, conditions: Homo sapiens, BT-474, 3.7 μM, 72 h, read-out: % cytotoxicity (100 − % cell survival) of BT474 cell line
For `Nc1nnc(S(=O)(=O)NC(=O)c2cccc([N+](=O)[O-])c2)s1` [Compound 4f], the cytotoxicity at 3.7 µM was 50.1%.

Same assay, conditions: Homo sapiens, BT-474, 11.11 μM, 72 h, read-out: % cytotoxicity (100 − % cell survival) of BT474 cell line
`Nc1nnc(S(=O)(=O)NC(=O)c2cccc([N+](=O)[O-])c2)s1` [Compound 4f] gave a cytotoxicity at 11.11 µM of 52.4%.

Same assay, conditions: Homo sapiens, BT-474, 33.33 μM, 72 h, read-out: % cytotoxicity (100 − % cell survival) of BT474 cell line
With `Nc1nnc(S(=O)(=O)NC(=O)c2cccc([N+](=O)[O-])c2)s1` [Compound 4f] the cytotoxicity at 33.33 µM was 55.3%.

Same assay, conditions: Homo sapiens, BT-474, 100 μM, 72 h, read-out: % cytotoxicity (100 − % cell survival) of BT474 cell line
`Nc1nnc(S(=O)(=O)NC(=O)c2cccc([N+](=O)[O-])c2)s1` [Compound 4f] showed a cytotoxicity at 100 µM of 59.3%.

Same assay, conditions: Homo sapiens, BT-474, BT474, concentration at which 50 % of the cells are dead, 72 h, read-out: CTC50 (cytotoxicity concentration)
`Nc1nnc(S(=O)(=O)NC(=O)c2cccc([N+](=O)[O-])c2)s1` [Compound 4f] gave a CC50 of 1560 nM.

System: not listed separately
Test: In vitro cytotoxicity by MTT assay, NCI-H226
Type: cell-based
Details: human, NCI-H226 lung cancer cells, 0.015 μM, read-out: % Cytotoxicity (100 − % cell survival) of NCI-H226 cell line
Experimental: as §1, §2
For `Nc1nnc(S(=O)(=O)NC(=O)c2cccc([N+](=O)[O-])c2)s1` [Compound 4f], the cytotoxicity at 72 h, 0.015 µM was 38.6%.

System: NCI-H226 (lung cancer cell line)
Test: In vitro cytotoxicity by MTT assay, NCI-H226
Type: cell-based
Details: Homo sapiens, NCI-H226, 0.005 μM, 72 h, read-out: % Cytotoxicity (100 − % cell survival) of NCI-H226 cell line
Experimental: as §1, §2
In the case of `Nc1nnc(S(=O)(=O)NC(=O)c2cccc([N+](=O)[O-])c2)s1` [Compound 4f], the cytotoxicity at 0.005 µM is reported as 37.2%.

Same assay, conditions: Homo sapiens, NCI-H226, 0.045 μM, 72 h, read-out: % Cytotoxicity (100 − % cell survival) of NCI-H226 cell line
`Nc1nnc(S(=O)(=O)NC(=O)c2cccc([N+](=O)[O-])c2)s1` [Compound 4f] showed a cytotoxicity at 0.045 µM of 39.7%.

Same assay, conditions: Homo sapiens, NCI-H226, 0.13 μM, 72 h, read-out: % Cytotoxicity (100 − % cell survival) of NCI-H226 cell line
`Nc1nnc(S(=O)(=O)NC(=O)c2cccc([N+](=O)[O-])c2)s1` [Compound 4f] showed a cytotoxicity at 0.13 µM of 41.6%.

Same assay, conditions: Homo sapiens, NCI-H226, 0.41 μM, 72 h, read-out: % Cytotoxicity (100 − % cell survival) of NCI-H226 cell line
For `Nc1nnc(S(=O)(=O)NC(=O)c2cccc([N+](=O)[O-])c2)s1` [Compound 4f], the cytotoxicity at 0.41 µM was 42.9%.

Same assay, conditions: Homo sapiens, NCI-H226, 1.23 μM, 72 h, read-out: % Cytotoxicity (100 − % cell survival) of NCI-H226 cell line
For `Nc1nnc(S(=O)(=O)NC(=O)c2cccc([N+](=O)[O-])c2)s1` [Compound 4f], the cytotoxicity at 1.23 µM was 45.8%.

Same assay, conditions: Homo sapiens, NCI-H226, 3.7 μM, 72 h, read-out: % Cytotoxicity (100 − % cell survival) of NCI-H226 cell line
Work on `Nc1nnc(S(=O)(=O)NC(=O)c2cccc([N+](=O)[O-])c2)s1` [Compound 4f] yielded a cytotoxicity at 3.7 µM of 46.5%.

Same assay, conditions: Homo sapiens, NCI-H226, 11.11 μM, 72 h, read-out: % Cytotoxicity (100 − % cell survival) of NCI-H226 cell line
Compound `Nc1nnc(S(=O)(=O)NC(=O)c2cccc([N+](=O)[O-])c2)s1` [Compound 4f] has a cytotoxicity at 11.11 µM of 48.3%.

Same assay, conditions: Homo sapiens, NCI-H226, 33.33 μM, 72 h, read-out: % Cytotoxicity (100 − % cell survival) of NCI-H226 cell line
Work on `Nc1nnc(S(=O)(=O)NC(=O)c2cccc([N+](=O)[O-])c2)s1` [Compound 4f] yielded a cytotoxicity at 33.33 µM of 50.1%.

Same assay, conditions: Homo sapiens, NCI-H226, 100 μM, 72 h, read-out: % Cytotoxicity (100 − % cell survival) of NCI-H226 cell line
Work on `Nc1nnc(S(=O)(=O)NC(=O)c2cccc([N+](=O)[O-])c2)s1` [Compound 4f] yielded a cytotoxicity at 100 µM of 52.9%.
